In USH1142H, “Optically active cyclobutyl pyrimidine” (priority 1990, dated 1993):

Experiments:
[1] = tested on: HSV-1 (herpes simplex virus type 1, strain Schooler); test: HSV-1 antiviral assay (plaque reduction in WI-38 cell culture monolayers); assay type: cell-based; settings: Human alphaherpesvirus 1, 96 h; HSV-1 strain Schooler; WI-38 monolayers; 4 days incubation at 37° C.; at least a 50% plaque reduction compared to virus controls; read-out: ID50 (the source's name)
Protocol: (§1) Assays were performed in cell culture systems to determine the concentrations of compounds that are effective in […] several kinds of viral infections. The assays are described below, and the results are presented in Table 1. |HSV-1 (herpes simplex virus type 1, strain Schooler), VZV |Cell Culture Assays: |HSV-1 and VZV antiviral assays: Virus was adsorbed to |WI-38 cell culture monolayers in 6 well culture plates (Costar, |Cambridge, MA) for 1 hour prior to addition of maintenance |medium containing duplicate dilutions of the test compound. |Inhibition of plaque development was evaluated on fixed and |stained monolayers after 4 days incubation at 37° C. for HSV-1 |and after 6-7 days incubation at 37° C. for VZV. ID50 values |were determined from the drug concentration which conferred at |least a 50% plaque reduction compared to virus controls.

[2] = tested on: VZV (varicella zoster virus, strain ELLEN); test: VZV antiviral assay (plaque reduction in WI-38 cell culture monolayers); assay type: cell-based; settings: Human alphaherpesvirus 3, WI-38 monolayers, 6-7 days incubation at 37° C., at least a 50% plaque reduction compared to virus controls, read-out: ID50 (the source's name)
Protocol: as §1, with “Schooler), VZV |(varicella zoster virus, strain ELLEN). |Cell Culture” for “Schooler), VZV |Cell Culture”

O=c1[nH]c(=O)n([C@@H]2C[C@H](CO)[C@H]2CO)cc1/C=C/Br [Compound 1, [1R-(1α(E),2β,3α)]-1-[2,3-bis(hydroxymethyl)cyclobutyl]-5-(2-bromoethenyl)-2,4(1H,3H)-pyrimidinedione]
IC50 [1]: 300 nM | IC50 [2]: 60 to 150 nM
